# According to patent US11344652B2, “Ionic liquids that sterilize and prevent biofilm formation in skin wound healing devices” (The Arizona Board of Regents on Behalf of Northern Arizona …, priority 2016, dated 2022):
# “And” between values parts separate entries of the source, which are not always exact repeats. Identical values can stand only once.
# Experiment: Physical characterization of CAGE at 25° C.
# Assay type: physicochemical
# Procedure: Physical characterization at 25° C. was in good agreement with published values and was as follows: density, 0.989±0.001 g mL^−1; and conductivity, 0.0427±0.0005 mS cm^−1.
# Physicochemical properties were identical to those previously published confirming purity (Zakrewsky et al., PNAS, 2014, 111, 13313; incorporated by reference herein in its entirety, and for the disclosure referenced herein). CAGE has unique properties based upon the 1:1:1 ratio of cation:anion:protonated acid. This is important since it gives rise to the low conductivity determined for CAGE (0.043 mS cm^−1) and is a potential indicator of anti-biofilm efficacy but, also provides insight to minimized skin irritation potential.
substance,measurement,value
choline geranate [CAGE],conductivity,0.0427±0.0005 mS cm^−1 and 0.043 mS cm^−1
same,density,0.989 ± 0.001 g/mL
